Results from US7169927B2, “Indole-amide derivatives and their use as glycogen phosphorylase inhibitors” (AstraZeneca AB, priority 2002, dated 2007).
pIC50: −log10 of the molar value.

Tests used:
[1] = tested on: conscious dogs; settings: following a glucagon challenge; cited from earlier work
[2] = molecular target: T1, Human recombinant liver glycogen phosphorylase a (hrl GPa) (Homo sapiens, UniProt P06737); experiment: Glycogen phosphorylase a inhibition, glycogen degradation (multienzyme coupled assay, NADH fluorescence); type: biochemical; settings: glycogen degradation direction
T1 sequence (P06737 1-847): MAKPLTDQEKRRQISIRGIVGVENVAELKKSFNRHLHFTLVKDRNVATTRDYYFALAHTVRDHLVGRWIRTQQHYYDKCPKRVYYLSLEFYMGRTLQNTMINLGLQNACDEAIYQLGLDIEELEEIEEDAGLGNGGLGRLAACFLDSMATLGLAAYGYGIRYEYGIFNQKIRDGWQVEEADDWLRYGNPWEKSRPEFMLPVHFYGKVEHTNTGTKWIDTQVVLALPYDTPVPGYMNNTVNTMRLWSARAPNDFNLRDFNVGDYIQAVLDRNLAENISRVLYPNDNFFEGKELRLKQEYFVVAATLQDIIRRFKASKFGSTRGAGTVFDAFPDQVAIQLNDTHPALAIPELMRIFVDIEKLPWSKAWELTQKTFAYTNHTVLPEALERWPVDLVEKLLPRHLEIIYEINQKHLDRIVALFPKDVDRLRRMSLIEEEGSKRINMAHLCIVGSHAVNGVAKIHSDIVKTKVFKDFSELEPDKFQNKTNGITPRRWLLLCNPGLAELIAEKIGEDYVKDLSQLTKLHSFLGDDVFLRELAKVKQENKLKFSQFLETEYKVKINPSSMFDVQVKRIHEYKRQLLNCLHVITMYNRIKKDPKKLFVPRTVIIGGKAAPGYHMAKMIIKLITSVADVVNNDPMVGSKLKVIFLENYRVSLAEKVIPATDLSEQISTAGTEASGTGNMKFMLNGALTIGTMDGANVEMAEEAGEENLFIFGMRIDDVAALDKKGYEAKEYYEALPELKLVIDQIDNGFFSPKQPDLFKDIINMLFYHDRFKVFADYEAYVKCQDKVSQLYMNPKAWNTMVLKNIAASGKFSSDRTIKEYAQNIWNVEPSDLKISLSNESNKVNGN
Procedure: The activity of the compounds is alternatively determined by measuring the inhibitory effect of the compounds on glycogen degradation, the production of glucose-1-phosphate from glycogen is monitored by the multienzyme coupled assay, as described in EP 0 846 464 A2, general method of Pesce et al (Pesce, M A, Bodourian, S H, Harris, R C, and Nicholson, J F (1977) Clinical Chemistry 23, […]). The reactions were in 384well microplate format in a volume of 50 μl. The change in fluorescence due to the conversion of the co-factor NAD to NADH is measured at 340 nm excitation, 465 nm emission in a Tecan Ultra Multifunctional Microplate Reader. The reaction is in 50 mM HEPES, 3.5 mM KH2PO4, 2.5 mM MgCl2, 2.5 mM ethylene glycol-bis(b-aminoethyl ether) N,N,N′N′tetraacetic acid, 100 mM KCl, 8 mM D-(+)-glucose pH7.2, containing 0.5 mM dithiothreitol, the assay buffer solution. Human recombinant liver glycogen phosphorylase a (hrl GPa) 20 nM is pre-incubated in assay buffer solution with 6.25 mM NAD, 1.25 mg type III glycogen at 1.25 mg ml^−1 the reagent buffer, for 30 minutes. […] The non-inhibited activity of GPa is measured in the presence of 10 μl 5% DMSO in assay buffer solution and maximum inhibition measured in the presence of 5 mgs ml^−1 N-ethylmaleimide. […] Relative Fluoresence Units (RFUs) are measured at 340 nm excitation, 465 nm emission. […]

[3] = tested on: hepatocytes; settings: cited from earlier work; for glucose output: glucagon stimulated
[4] = tested on: db/db and ob/ob mice; settings: cited from earlier work

| Structure (SMILES) | arterial plasma glucose [1] | hepatic glucose output [1] | pIC50 [2] | glucagon stimulated glycogenolysis [3] | glucose output [3] | plasma glucose concentration [4] |
| --- | --- | --- | --- | --- | --- | --- |
| CCN1C(C)=C(C(=O)OC(C)C)C(c2ccccc2Cl)C2=C1COC2=O (stereo not drawn) [Bay R 3401] | reduced significantly | reduced significantly |  |  |  |  |
| Cc1csc(NC(=O)CN2C(=O)C(NC(=O)c3cc4cc(Cl)ccc4[nH]3)Cc3ccccc32)n1 (stereo not drawn) [Example 14, 5-chloro-N-(1-{2-[(4-methyl-1,3-thiazol-2-yl)amino]-2-oxoethyl}-2-oxo-1,2,3,4-tetrahydroquinolin-3-yl)-1H-indole-2-carboxamide] |  |  | 5.34 |  |  |  |
| O=C(N[C@@H](Cc1ccc(F)cc1)C(=O)N1CCC(O)CC1)c1cc2cc(Cl)ccc2[nH]1 [CP320626] |  |  |  | reduce | reduce | reduced, in a dose related manner |
| CN(C)C(=O)[C@H](O)[C@H](Cc1ccccc1)NC(=O)c1cc2cc(Cl)ccc2[nH]1 [CP91149] |  |  |  | reduce | reduce | reduced, in a dose related manner |
